The values below come from PubChem BioAssay (NCI).

Holding throughout (experiment): NCI-60 cell line screen, 48 h
The test system of assay [1] is 786-0 renal.
Assay [2] has as its system COLO 205 colon.
For assay [3], the system named is ACHN renal.
In assay [4] the test system is DU-145 prostate.
Assay [5] relates to OVCAR-5 ovarian.
In assay [6] the test system is HT29 colon.
Assay [7] relates to SNB-75 CNS.
In assay [8] the test system is SR leukemia.

The structures appear in SMILES notation.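 Protocol summary: plate cells (96-well), add compound at 5 concentrations, incubate 48 h, interpolate endpoints linearly. The concentration for 50% growth inhibition is given as GI50. TGI marks complete inhibition of growth.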

For the compound `COc1cc(C(=O)O/N=C(\N)Cc2cccc3ccccc23)cc(OC)c1OC`, the GI50 in assay [1] is 13.5 µM; in assay [2], 12.2 µM; in assay [3] it was 7.11 µM; in assay [4], 11.4 µM; in assay [5], 13 µM; in assay [6], 15.7 µM. In addition, the GI50 in assay [7] is 2.8 µM. For the same compound, the TGI in assay [1] stood at 26.7 µM; in assay [2] it was 28.1 µM; in assay [3] it was 20.3 µM; in assay [4] it was 23.7 µM; in assay [5] it was 26.5 µM; in assay [6], 38.3 µM. The compound further displayed a TGI in assay [7] of 15.6 µM.
Take `O=C1CC(c2ccsc2)c2snc(-c3ccc(Cl)cc3)c2N1` (stereo not drawn): the GI50 in assay [1] was 7.65 µM; in assay [2], 0.527 µM; in assay [3] it was 5.39 µM; in assay [4], 2.68 µM; in assay [5] it was 5.92 µM; in assay [6], 0.4 µM. Moreover, in assay [7], the GI50 was 1.71 µM. Moreover, the TGI in assay [1] is over 100 µM; in assay [2], 2.57 µM; in assay [3], over 100 µM; in assay [4], over 100 µM; in assay [5], over 100 µM; in assay [6] it was over 100 µM. The TGI in assay [7] was found to be 9.71 µM.
Consider `COc1ccc2c(c1)C(=O)c1c-2c(N2CCN(C(=O)CNCCN(C)C)CC2)nc2ccccc12`, for which the GI50 is 1.48 µM in assay [1]; 1.65 µM in assay [2]; 4.65 µM in assay [3]; 3.32 µM in assay [4]; 2.2 µM in assay [5]; 0.362 µM in assay [6]. Further, the TGI in assay [1] came out at 3.09 µM; in assay [2], 3.2 µM; in assay [3], 17.4 µM; in assay [4], 13.3 µM; in assay [5], 5.82 µM; in assay [6] it was 1.25 µM.
Take `O=C(Cc1csc2nc(-c3ccc(Br)cc3)cn12)N/N=C/c1ccc(Cl)cc1Cl`: the GI50 in assay [1] was 25.8 µM; in assay [2], 75 µM; in assay [3], 22.6 µM; in assay [4] it was 26.3 µM; in assay [5], 28.6 µM; in assay [6], 40.8 µM. Also, the GI50 in assay [7] was 37.5 µM. In addition, the TGI in assay [1] is 73.4 µM; in assay [2], over 100 µM; in assay [3], 53.6 µM; in assay [4], over 100 µM; in assay [5], 67.3 µM; in assay [6] it was over 100 µM. This compound registered a TGI in assay [7] of over 100 µM.
For `Nc1nccc2c1ccn2-c1cccc(NC(=O)c2ccc(N3CCOCC3)c(C(F)(F)F)c2)c1`, the GI50 in assay [1] was 0.905 µM; in assay [3], 0.826 µM; in assay [4], 1.22 µM; in assay [5], 1.84 µM; in assay [8] it was 0.205 µM; in assay [6], 0.32 µM. The GI50 in assay [7] is 0.307 µM. For the same compound, the TGI in assay [1] was 2.58 µM; in assay [3] it was 11.5 µM; in assay [4], 4.15 µM; in assay [5] it was over 50 µM; in assay [8], over 11.3 µM; in assay [6] it was 1.45 µM. Also, the TGI in assay [7] turned out to be 2.25 µM.
As for `Fc1cccc(Cl)c1Cn1c(-c2c(F)cccc2Cl)nc2ccccc21`, the GI50 was 21 µM in assay [1]; 17.5 µM in assay [2]; 18.9 µM in assay [3]; 24.6 µM in assay [4]; 24.9 µM in assay [5]; 30 µM in assay [6]. The GI50 in assay [7] is 22.1 µM. The TGI in assay [1] is 42.6 µM; in assay [2] it was over 100 µM; in assay [3], 41.4 µM; in assay [4], 56.1 µM; in assay [5], 95.8 µM; in assay [6], over 100 µM. The same compound came in with a TGI in assay [7] of 69.3 µM.
On to `COc1cc(OC)c(F)c(COc2cnc(Nc3cnn(CCO)c3)nc2)c1F`, for which the GI50 in assay [1] was 1.75 µM; in assay [2], 0.607 µM; in assay [4] it was 2.15 µM; in assay [5], 2.08 µM; in assay [8], 0.274 µM; in assay [6], 0.36 µM. Also, in assay [7], the GI50 was 0.203 µM. Besides, the TGI in assay [1] was over 100 µM; in assay [2], 3.14 µM; in assay [4] it was over 100 µM; in assay [5], over 100 µM; in assay [6], 4.31 µM; in assay [7], 2.32 µM.
`CN(C)c1ccc2cc3ccc(N(C)C)cc3nc2c1`: the TGI amounted to 2.26 µM in assay [1]; 22.8 µM in assay [2]; 3.67 µM in assay [3]; 4.29 µM in assay [4]; 9.82 µM in assay [5]; 1.81 µM in assay [6]. The TGI in assay [7] is 11.9 µM.
For the compound `O=C(O)c1cn(C2CC2)c2cc(N3CCNCC3)c(F)cc2c1=O`, the GI50 in assay [1], in assay [2], in assay [3], in assay [4], in assay [5] and in assay [6] was over 100 µM in each case. The TGI in assay [1], in assay [2], in assay [3], in assay [4], in assay [5] and in assay [6] was over 100 µM throughout.
With `CC[C@H]1CN(C)[C@H]2Cc3c([nH]c4ccccc34)C(=O)C[C@H]1C2C(=O)OC` (stereo partly drawn), the TGI in assay [1], in assay [2], in assay [3], in assay [4], in assay [5] and in assay [8] was over 100 µM in each case. Further, in assay [6], the TGI was over 100 µM.
`CC(=O)Nc1ccc(-c2csc(Nc3cccc(-c4csc(-c5ccccc5)n4)c3)n2)cc1`: the GI50 in assay [1] is 21 µM; in assay [2], 24.2 µM; in assay [3], 8.3 µM; in assay [4], 22.2 µM; in assay [5] it was over 50 µM; in assay [8], 27.3 µM. The TGI was over 50 µM in assay [1]; over 50 µM in assay [2]; 27.5 µM in assay [3]; over 50 µM in assay [4]; over 50 µM in assay [5]; over 50 µM in assay [8].
